Consider seven molecules from patent US20230242585A1, “IMMUNOMODULATORS” (Bristol-Myers Squibb Company, priority 2020, published 2023).

Broadly, the IC50 is the concentration that gives 50% inhibition. Read a low IC50 as inhibition by little substance.

Starred links: 1 amine or outer side, 2 acyl side, 3 side chain; linkers in the order of their positions; H or OH if unused. Positions of bridges follow the written chain, without caps; N, C: chain ends. Non-standard residues stand in square brackets, D forms with d. Residues, ends and D or L forms follow the SMILES beside them. X28 = O=C([C@H](CCNC[C@H](O)[C@@H](O)[C@H](O[C@@H]1O[C@H](CO)[C@H](O)[C@H](O)[C@H]1O)[C@H](O)CO)N[*:1])[*:2]; X27 = O=C([C@H](CNC[C@H](O)[C@@H](O)[C@H](O[C@@H]1O[C@H](CO)[C@H](O)[C@H](O)[C@H]1O)[C@H](O)CO)N[*:1])[*:2]; X56 = O=C([C@H](CCNC[C@@H](O)[C@H](O)[C@@H](O)[C@@H](O)[C@H](O)CO)N[*:1])[*:2]; X49 = O=C([C@H](CNC[C@@H](O)[C@H](O)[C@@H](O)[C@@H](O)[C@H](O)CO)N[*:1])[*:2]; X62 = O=C([C@H](CCNC[C@H](O)[C@H](O)[C@@H](O)[C@@H](O)CO)N[*:1])[*:2]; X63 = O=C([C@H](CCNC[C@H](O)[C@@H](O)[C@@H](O)[C@H](O)CO)N[*:1])[*:2]; X11 = O=C([C@H](CNC[C@H](O)[C@@H](O)[C@@H](O)[C@H](O)CO)N[*:1])[*:2]; X35 = O=C([C@H](CNC[C@H](O)[C@H](O)[C@@H](O)[C@@H](O)CO)N[*:1])[*:2]; X8 = O=C([C@H](CNC[C@@H](O)[C@@H](O)[C@@H](O)[C@H](O)CO)N[*:1])[*:2]; X3 = O=C([C@H](CNC[C@@H](O)[C@@H](O)[C@H](O)[C@H](O)CO)N[*:1])[*:2]; Trp(1-CH2COOH) = N[C@@H](Cc1cn(CC(=O)O)c2ccccc12)C(=O)O; Hyp = O=C(O)[C@@H]1C[C@@H](O)CN1; NMeNle = CCCC[C@H](NC)C(=O)O; NMeA = CN[C@@H](C)C(=O)O; Dab = NCC[C@H](N)C(=O)O

T1 sequence (Q9NZQ7 18-239): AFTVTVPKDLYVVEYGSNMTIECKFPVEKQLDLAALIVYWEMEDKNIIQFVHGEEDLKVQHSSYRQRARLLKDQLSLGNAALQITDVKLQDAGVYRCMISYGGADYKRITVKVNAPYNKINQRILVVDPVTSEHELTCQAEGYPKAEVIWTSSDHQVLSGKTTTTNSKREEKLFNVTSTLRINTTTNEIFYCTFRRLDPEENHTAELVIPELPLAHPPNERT

The test addresses T1, PD-1/PD-L1 (Homo sapiens, UniProt Q9NZQ7).
T1 construct: TVMV protease site (linker) (C); made in house; host or cells: HEK293T cells
As to the kind of experiment: PD-1/PD-L1 Homogenous Time-Resolved Fluorescence (HTRF) binding assay. The following applies: PD-L1-His 10 nM, PD-1-Ig 20 nM. The method, boiled down: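 Compounds preincubated 15 min with PD-L1-His (residues 18-239, 10 nM) in dPBS with 0.1% BSA, 0.05% Tween-20, then PD-1-Ig (residues 25-167, 20 nM) for 15 min. Eu-cryptate anti-Ig (1 nM) and APC anti-His (20 nM) equilibrated 30 min; 665/620 nm ratio read, IC50 derived.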
On the technique in general: In TR-FRET formats the signal depends on donor and acceptor labels being close together.
For `CCCC[C@H]1C(=O)N(C)[C@@H](CCCC)C(=O)N[C@@H](CC(C)C)C(=O)N[C@H](C(=O)NCC(N)=O)CSCC(=O)N[C@@H](Cc2ccc(O)cc2)C(=O)N(C)[C@@H](C)C(=O)N[C@@H](CC(N)=O)C(=O)N2CCC[C@H]2C(=O)N[C@@H](CNC[C@@H](O)[C@@H](O)[C@@H](O)[C@H](O)CO)C(=O)N[C@@H](CC(C)C)C(=O)N2C[C@H](O)C[C@H]2C(=O)N[C@@H](Cc2c[nH]c3ccccc23)C(=O)N[C@@H](CCN)C(=O)N[C@@H](Cc2cn(CC(=O)O)c3ccccc23)C(=O)N1C` [Example 2022] ({CH2CO}-Y[NMeA]NP[X8]L[Hyp]W[Dab][Trp(1-CH2COOH)][NMeNle][NMeNle]LCG-NH2; thioether N-14), the IC50 is 8.6 nM.
The value for `CCCC[C@H]1C(=O)N(C)[C@@H](CCCC)C(=O)N[C@@H](CC(C)C)C(=O)N[C@H](C(=O)NCC(N)=O)CSCC(=O)N[C@@H](Cc2ccc(O)cc2)C(=O)N(C)[C@@H](C)C(=O)N[C@@H](CC(N)=O)C(=O)N2CCC[C@H]2C(=O)N[C@@H](CNC[C@H](O)[C@H](O)[C@@H](O)[C@@H](O)CO)C(=O)N[C@@H](CC(C)C)C(=O)N2C[C@H](O)C[C@H]2C(=O)N[C@@H](Cc2c[nH]c3ccccc23)C(=O)N[C@@H](CCNC[C@H](O)[C@H](O)[C@@H](O)[C@@H](O)CO)C(=O)N[C@@H](Cc2cn(CC(=O)O)c3ccccc23)C(=O)N1C` [Example 2023] ({CH2CO}-Y[NMeA]NP[X35]L[Hyp]W[X62][Trp(1-CH2COOH)][NMeNle][NMeNle]LCG-NH2; thioether N-14) was 6.1 nM; that for `CCCC[C@H]1C(=O)N(C)[C@@H](CCCC)C(=O)N[C@@H](CC(C)C)C(=O)N[C@H](C(=O)NCC(N)=O)CSCC(=O)N[C@@H](Cc2ccc(O)cc2)C(=O)N(C)[C@@H](C)C(=O)N[C@@H](CC(N)=O)C(=O)N2CCC[C@H]2C(=O)N[C@@H](CNC[C@@H](O)[C@@H](O)[C@H](O)[C@H](O)CO)C(=O)N[C@@H](CC(C)C)C(=O)N2C[C@H](O)C[C@H]2C(=O)N[C@@H](Cc2c[nH]c3ccccc23)C(=O)N[C@@H](CCN)C(=O)N[C@@H](Cc2cn(CC(=O)O)c3ccccc23)C(=O)N1C` [Example 2024] ({CH2CO}-Y[NMeA]NP[X3]L[Hyp]W[Dab][Trp(1-CH2COOH)][NMeNle][NMeNle]LCG-NH2; thioether N-14) was 1.6 nM.
The value for `CCCC[C@H]1C(=O)N(C)[C@@H](CCCC)C(=O)N[C@@H](CC(C)C)C(=O)N[C@H](C(=O)NCC(N)=O)CSCC(=O)N[C@@H](Cc2ccc(O)cc2)C(=O)N(C)[C@@H](C)C(=O)N[C@@H](CC(N)=O)C(=O)N2CCC[C@H]2C(=O)N[C@@H](CNC[C@H](O)[C@@H](O)[C@@H](O)[C@H](O)CO)C(=O)N[C@@H](CC(C)C)C(=O)N2C[C@H](O)C[C@H]2C(=O)N[C@@H](Cc2c[nH]c3ccccc23)C(=O)N[C@@H](CCNC[C@H](O)[C@@H](O)[C@@H](O)[C@H](O)CO)C(=O)N[C@@H](Cc2cn(CC(=O)O)c3ccccc23)C(=O)N1C` [Example 2026] ({CH2CO}-Y[NMeA]NP[X11]L[Hyp]W[X63][Trp(1-CH2COOH)][NMeNle][NMeNle]LCG-NH2; thioether N-14) was 1.8 nM.
The value for `CCCC[C@H]1C(=O)N(C)[C@@H](CCCC)C(=O)N[C@@H](CC(C)C)C(=O)N[C@H](C(=O)NCC(N)=O)CSCC(=O)N[C@@H](Cc2ccc(O)cc2)C(=O)N(C)[C@@H](C)C(=O)N[C@@H](CC(N)=O)C(=O)N2CCC[C@H]2C(=O)N[C@@H](CNC[C@H](O)[C@H](O)[C@@H](O)[C@@H](O)CO)C(=O)N[C@@H](CC(C)C)C(=O)N2C[C@H](O)C[C@H]2C(=O)N[C@@H](Cc2c[nH]c3ccccc23)C(=O)N[C@@H](CCN)C(=O)N[C@@H](Cc2cn(CC(=O)O)c3ccccc23)C(=O)N1C` [Example 2027] ({CH2CO}-Y[NMeA]NP[X35]L[Hyp]W[Dab][Trp(1-CH2COOH)][NMeNle][NMeNle]LCG-NH2; thioether N-14) was 1 nM.
On to `CCCC[C@H]1C(=O)N(C)[C@@H](CCCC)C(=O)N[C@@H](CC(C)C)C(=O)N[C@H](C(=O)NCC(N)=O)CSCC(=O)N[C@@H](Cc2ccc(O)cc2)C(=O)N(C)[C@@H](C)C(=O)N[C@@H](CC(N)=O)C(=O)N2CCC[C@H]2C(=O)N[C@@H](CNC[C@H](O)[C@@H](O)[C@H](O[C@@H]2O[C@H](CO)[C@H](O)[C@H](O)[C@H]2O)[C@H](O)CO)C(=O)N[C@@H](CC(C)C)C(=O)N2C[C@H](O)C[C@H]2C(=O)N[C@@H](Cc2c[nH]c3ccccc23)C(=O)N[C@@H](CCNC[C@H](O)[C@@H](O)[C@H](O[C@@H]2O[C@H](CO)[C@H](O)[C@H](O)[C@H]2O)[C@H](O)CO)C(=O)N[C@@H](Cc2cn(CC(=O)O)c3ccccc23)C(=O)N1C` [Example 2028] ({CH2CO}-Y[NMeA]NP[X27]L[Hyp]W[X28][Trp(1-CH2COOH)][NMeNle][NMeNle]LCG-NH2; thioether N-14), for which the IC50 stood at 4.6 nM.
With `CCCC[C@H]1C(=O)N(C)[C@@H](CCCC)C(=O)N[C@@H](CC(C)C)C(=O)N[C@H](C(=O)NCC(N)=O)CSCC(=O)N[C@@H](Cc2ccc(O)cc2)C(=O)N(C)[C@@H](C)C(=O)N[C@@H](CC(N)=O)C(=O)N2CCC[C@H]2C(=O)N[C@@H](CNC[C@@H](O)[C@H](O)[C@@H](O)[C@@H](O)[C@H](O)CO)C(=O)N[C@@H](CC(C)C)C(=O)N2C[C@H](O)C[C@H]2C(=O)N[C@@H](Cc2c[nH]c3ccccc23)C(=O)N[C@@H](CCNC[C@@H](O)[C@H](O)[C@@H](O)[C@@H](O)[C@H](O)CO)C(=O)N[C@@H](Cc2cn(CC(=O)O)c3ccccc23)C(=O)N1C` [Example 2029] ({CH2CO}-Y[NMeA]NP[X49]L[Hyp]W[X56][Trp(1-CH2COOH)][NMeNle][NMeNle]LCG-NH2; thioether N-14), the half-maximal inhibitory concentration (IC50) stood at 8.5 nM.
